From ChEMBL document CHEMBL4321795, “Metabolism by Aldehyde Oxidase: Drug Design and Complementary Approaches to Challenges in Drug Discovery” (J Med Chem, 2019)
One block for each molecule: values may come before it.

Columns and labels:
Aldehyde oxidase 1 [1] = target: T1, Aldehyde oxidase 1 (Rattus norvegicus, UniProt Q9Z0U5); test: Substrate activity at aldehyde oxidase in rat liver cytosol assessed as enzyme-mediated drug uptake at 1 uM; assay type: ADME, subcellular
T1 sequence (Q9Z0U5 whole entry): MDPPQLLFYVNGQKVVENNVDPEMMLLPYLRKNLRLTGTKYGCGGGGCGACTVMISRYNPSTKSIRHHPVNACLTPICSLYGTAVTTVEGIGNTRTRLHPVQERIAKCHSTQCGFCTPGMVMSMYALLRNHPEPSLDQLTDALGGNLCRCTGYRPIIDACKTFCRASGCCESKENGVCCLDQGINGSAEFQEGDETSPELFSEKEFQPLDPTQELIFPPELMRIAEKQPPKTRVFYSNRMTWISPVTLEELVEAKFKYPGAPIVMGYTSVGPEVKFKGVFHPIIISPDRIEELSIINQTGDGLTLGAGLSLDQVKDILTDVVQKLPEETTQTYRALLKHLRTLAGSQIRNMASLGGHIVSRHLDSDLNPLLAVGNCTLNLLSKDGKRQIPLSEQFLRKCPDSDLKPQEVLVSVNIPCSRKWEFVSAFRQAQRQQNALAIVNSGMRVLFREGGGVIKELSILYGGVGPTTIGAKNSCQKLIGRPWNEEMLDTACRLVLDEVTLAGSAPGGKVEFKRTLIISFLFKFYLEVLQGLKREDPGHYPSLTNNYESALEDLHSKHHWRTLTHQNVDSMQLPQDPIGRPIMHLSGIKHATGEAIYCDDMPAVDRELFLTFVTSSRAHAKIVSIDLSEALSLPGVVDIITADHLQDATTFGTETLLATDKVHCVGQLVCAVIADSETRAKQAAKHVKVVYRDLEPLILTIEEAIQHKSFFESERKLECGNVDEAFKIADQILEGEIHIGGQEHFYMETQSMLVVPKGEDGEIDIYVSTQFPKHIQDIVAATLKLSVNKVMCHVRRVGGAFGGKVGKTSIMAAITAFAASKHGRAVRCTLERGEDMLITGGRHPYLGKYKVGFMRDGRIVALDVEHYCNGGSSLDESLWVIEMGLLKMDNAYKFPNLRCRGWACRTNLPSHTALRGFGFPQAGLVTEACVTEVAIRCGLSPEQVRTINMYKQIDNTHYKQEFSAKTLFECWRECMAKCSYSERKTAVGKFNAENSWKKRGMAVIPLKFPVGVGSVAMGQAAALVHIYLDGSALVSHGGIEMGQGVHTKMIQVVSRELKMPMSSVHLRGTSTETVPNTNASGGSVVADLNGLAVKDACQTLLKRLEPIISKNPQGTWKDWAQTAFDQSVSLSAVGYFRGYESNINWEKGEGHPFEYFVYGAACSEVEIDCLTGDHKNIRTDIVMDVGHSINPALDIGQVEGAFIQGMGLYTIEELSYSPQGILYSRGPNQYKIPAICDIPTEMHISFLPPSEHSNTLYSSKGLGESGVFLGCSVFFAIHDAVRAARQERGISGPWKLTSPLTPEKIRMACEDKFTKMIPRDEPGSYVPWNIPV

Aldehyde oxidase [2] = target: T2, Aldehyde oxidase (Homo sapiens, UniProt Q06278); test: Substrate activity at aldehyde oxidase in human liver cytosol assessed as enzyme-mediated drug uptake at 1 uM; assay type: ADME, subcellular
T2 sequence (Q06278 whole entry): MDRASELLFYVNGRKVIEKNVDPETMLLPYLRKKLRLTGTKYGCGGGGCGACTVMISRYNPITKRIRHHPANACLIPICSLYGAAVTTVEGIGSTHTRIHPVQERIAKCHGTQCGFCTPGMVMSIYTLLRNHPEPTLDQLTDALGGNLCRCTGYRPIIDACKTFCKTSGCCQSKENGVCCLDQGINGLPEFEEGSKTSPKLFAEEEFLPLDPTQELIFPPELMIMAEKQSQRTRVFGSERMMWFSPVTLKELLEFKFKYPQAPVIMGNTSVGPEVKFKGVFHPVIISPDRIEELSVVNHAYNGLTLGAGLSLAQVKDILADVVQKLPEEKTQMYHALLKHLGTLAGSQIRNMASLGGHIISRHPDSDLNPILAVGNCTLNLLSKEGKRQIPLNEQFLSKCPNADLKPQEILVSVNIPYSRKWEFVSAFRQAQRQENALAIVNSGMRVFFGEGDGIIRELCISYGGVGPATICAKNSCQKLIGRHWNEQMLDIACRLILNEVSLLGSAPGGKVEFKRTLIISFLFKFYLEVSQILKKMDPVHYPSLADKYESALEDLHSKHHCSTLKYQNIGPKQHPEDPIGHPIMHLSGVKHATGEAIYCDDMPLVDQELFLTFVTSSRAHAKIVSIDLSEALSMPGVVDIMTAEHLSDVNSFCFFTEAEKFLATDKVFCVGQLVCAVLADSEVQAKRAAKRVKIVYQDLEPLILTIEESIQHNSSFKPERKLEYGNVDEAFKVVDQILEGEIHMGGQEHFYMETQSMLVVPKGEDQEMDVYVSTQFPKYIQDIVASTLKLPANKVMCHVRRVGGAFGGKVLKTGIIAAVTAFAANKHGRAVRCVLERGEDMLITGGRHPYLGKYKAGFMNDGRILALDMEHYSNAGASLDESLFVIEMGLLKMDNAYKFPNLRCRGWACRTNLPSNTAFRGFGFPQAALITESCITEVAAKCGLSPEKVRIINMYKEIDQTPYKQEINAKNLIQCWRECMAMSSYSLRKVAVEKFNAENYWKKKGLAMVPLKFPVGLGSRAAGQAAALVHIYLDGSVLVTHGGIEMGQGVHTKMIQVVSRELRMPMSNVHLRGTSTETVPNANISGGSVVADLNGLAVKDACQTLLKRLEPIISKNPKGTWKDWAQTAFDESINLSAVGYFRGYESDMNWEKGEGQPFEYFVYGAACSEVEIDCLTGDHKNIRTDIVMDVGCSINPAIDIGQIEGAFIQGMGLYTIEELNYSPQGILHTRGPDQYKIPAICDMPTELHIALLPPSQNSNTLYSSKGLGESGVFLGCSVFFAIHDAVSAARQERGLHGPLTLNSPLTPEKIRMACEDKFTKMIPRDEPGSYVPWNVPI

Aldehyde oxidase 1 [3] = target: T3, Aldehyde oxidase 1 (Cavia porcellus, UniProt H9TB17); test: Substrate activity at aldehyde oxidase in guinea pig liver cytosol assessed as enzyme-mediated drug uptake at 1 uM; assay type: ADME, subcellular
T3 sequence (H9TB17 whole entry): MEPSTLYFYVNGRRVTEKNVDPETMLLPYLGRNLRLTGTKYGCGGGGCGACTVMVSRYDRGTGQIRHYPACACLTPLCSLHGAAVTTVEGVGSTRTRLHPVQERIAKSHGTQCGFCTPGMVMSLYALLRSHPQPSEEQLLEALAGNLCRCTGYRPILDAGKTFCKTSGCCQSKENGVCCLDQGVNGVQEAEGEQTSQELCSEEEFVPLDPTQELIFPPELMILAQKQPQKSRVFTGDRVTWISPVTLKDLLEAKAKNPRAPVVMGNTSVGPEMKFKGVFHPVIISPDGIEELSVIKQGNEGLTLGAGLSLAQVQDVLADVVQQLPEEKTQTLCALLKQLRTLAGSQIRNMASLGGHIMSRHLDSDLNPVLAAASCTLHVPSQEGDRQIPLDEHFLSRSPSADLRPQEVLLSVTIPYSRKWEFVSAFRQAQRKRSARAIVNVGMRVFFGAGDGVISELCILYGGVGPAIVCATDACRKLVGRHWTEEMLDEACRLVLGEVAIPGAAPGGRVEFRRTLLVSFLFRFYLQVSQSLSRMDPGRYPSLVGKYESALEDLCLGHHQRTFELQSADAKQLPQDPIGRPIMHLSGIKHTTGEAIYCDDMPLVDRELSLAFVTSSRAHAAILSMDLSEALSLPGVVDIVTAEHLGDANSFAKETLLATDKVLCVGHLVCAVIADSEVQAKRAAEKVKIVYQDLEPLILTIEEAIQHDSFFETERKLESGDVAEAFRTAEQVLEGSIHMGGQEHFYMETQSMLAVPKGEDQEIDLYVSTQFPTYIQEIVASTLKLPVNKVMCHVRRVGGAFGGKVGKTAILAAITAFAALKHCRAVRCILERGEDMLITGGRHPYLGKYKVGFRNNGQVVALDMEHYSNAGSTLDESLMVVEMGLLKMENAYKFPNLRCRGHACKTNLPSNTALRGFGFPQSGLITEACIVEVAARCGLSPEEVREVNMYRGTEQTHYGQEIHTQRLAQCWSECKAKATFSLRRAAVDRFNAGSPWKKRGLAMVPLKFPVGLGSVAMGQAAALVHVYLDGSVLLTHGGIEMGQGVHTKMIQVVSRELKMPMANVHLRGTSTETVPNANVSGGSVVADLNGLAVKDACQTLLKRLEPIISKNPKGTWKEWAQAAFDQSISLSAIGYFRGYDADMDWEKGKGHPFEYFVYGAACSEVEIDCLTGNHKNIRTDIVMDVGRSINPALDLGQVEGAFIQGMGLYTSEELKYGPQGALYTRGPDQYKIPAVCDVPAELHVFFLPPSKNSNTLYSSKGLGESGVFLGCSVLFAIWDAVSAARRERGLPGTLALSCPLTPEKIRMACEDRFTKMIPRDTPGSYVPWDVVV

Aldehyde oxidase [4] = target: T2, Aldehyde oxidase; test: Substrate activity at aldehyde oxidase in human hepatocytes assessed as enzyme-mediated drug uptake at 1 uM; assay type: ADME, cell-based
Aldehyde oxidase 1 [5] = target: T3, Aldehyde oxidase 1; test: Substrate activity at aldehyde oxidase in guinea pig liver cytosol assessed as enzyme-mediated drug uptake by mass spectrophotometric analysis; assay type: ADME, subcellular
Aldehyde oxidase [6] = target: T2, Aldehyde oxidase; test: Substrate activity at aldehyde oxidase in human liver cytosol assessed as enzyme-mediated drug uptake by mass spectrophotometric analysis; assay type: ADME, subcellular
Aldehyde oxidase 1 [7] = target: T1, Aldehyde oxidase 1; test: Substrate activity at aldehyde oxidase in rat liver cytosol assessed as enzyme-mediated drug uptake by mass spectrophotometric analysis; assay type: ADME, subcellular
Aldehyde oxidase [8] = target: T2, Aldehyde oxidase; test: Substrate activity at aldehyde oxidase in human liver cytosol assessed as enzyme-mediated M2 metabolite formation at 10 uM after 90 mins by LC-MS/MS analysis; assay type: ADME, subcellular
Aldehyde oxidase 1 [9] = target: T1, Aldehyde oxidase 1; test: Drug level in Sprague-Dawley rat plasma treated with [14C]momelotinib assessed as aldehyde oxidase mediated compound formation at 15 mg/kg, po measured up to 48 hrs by liquid scintillation counting; assay type: ADME, organism-based; conditions: in vivo
[10] = Drug level in Beagle dog plasma treated with [14C]momelotinib at 15 mg/kg, po measured up to 12 hrs by liquid scintillation counting; assay type: ADME, organism-based, Canis lupus familiaris; conditions: in vivo
Aldehyde oxidase [11] = target: T2, Aldehyde oxidase; test: Drug level in human plasma treated with [14C]momelotinib assessed as aldehyde oxidase mediated compound formation at 200 mg, po measured at 24 hrs interval for 504 hrs post dose by liquid scintillation counting; assay type: ADME, organism-based; conditions: in vivo
[12] = Oral bioavailability in BDF1 mouse at 50 mg/kg after 2 to 24 hrs by HPLC analysis; assay type: ADME, organism-based; conditions: in vivo
[13] = Oral bioavailability in BDF1 mouse at 25 mg/kg after 2 to 24 hrs by HPLC analysis; assay type: ADME, organism-based; conditions: in vivo
Cytochrome P450 3A4 [14] = target: T4, Cytochrome P450 3A4 (Homo sapiens, UniProt P08684); test: Substrate activity at human CYP3A4 assessed as increase in atorvastatin AUC relative to control; assay type: ADME
T4 sequence (P08684 whole entry): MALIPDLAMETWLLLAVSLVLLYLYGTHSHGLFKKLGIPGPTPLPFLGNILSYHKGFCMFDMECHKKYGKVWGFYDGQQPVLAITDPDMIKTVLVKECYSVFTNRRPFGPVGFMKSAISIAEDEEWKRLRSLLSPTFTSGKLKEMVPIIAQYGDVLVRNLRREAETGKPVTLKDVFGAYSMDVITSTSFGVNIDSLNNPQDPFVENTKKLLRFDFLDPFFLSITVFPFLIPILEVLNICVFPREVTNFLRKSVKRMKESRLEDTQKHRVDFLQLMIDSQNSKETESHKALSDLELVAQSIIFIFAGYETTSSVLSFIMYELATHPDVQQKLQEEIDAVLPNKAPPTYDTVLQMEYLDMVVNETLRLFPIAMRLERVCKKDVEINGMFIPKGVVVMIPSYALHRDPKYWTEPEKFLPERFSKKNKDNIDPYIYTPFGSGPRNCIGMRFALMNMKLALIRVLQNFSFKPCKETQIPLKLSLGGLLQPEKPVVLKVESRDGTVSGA

Cytochrome P450 3A4 [15] = target: T4, Cytochrome P450 3A4; test: Substrate activity at human CYP3A4 assessed as increase in midazolam AUC relative to control; assay type: ADME
Cytochrome P450 3A4 [16] = target: T4, Cytochrome P450 3A4; test: Substrate activity at human CYP3A4 assessed as increase in methyl-prednisolone AUC relative to control; assay type: ADME
[17] = Drug level in human plasma treated with imrecoxib at 100 mg, po measured up to 96 hrs by UPLC/Q-TOF MS analysis; assay type: ADME, organism-based; conditions: in vivo
Aldehyde oxidase [18] = target: T2, Aldehyde oxidase; test: Substrate activity at aldehyde oxidase in human liver S9 fractions assessed as enzyme-mediated 2-oxo metabolite formation by measuring half life at 1 uM after 10 to 120 mins by liquid chromatography-tandem mass spectrometry; assay type: ADME, subcellular; conditions: s9, 1 µM
[19] = Clearance in human plasma; assay type: ADME, cell-free
[20] = Oral bioavailability in human; assay type: ADME, organism-based; conditions: in vivo

SMILES: CCNC(=O)OC1CCN(c2nncc3cc(OC)c(OC)cc23)CC1 [CARBAZERAN]
K (Aldehyde oxidase 1 [1]): 3.6 to 6.1
K (Aldehyde oxidase [2]): 3.6 to 6.1
K (Aldehyde oxidase 1 [3]): 3.6 to 6.1
K (Aldehyde oxidase [4]): 1.5

SMILES: c1ccc2ncccc2c1 [QUINOLINE]
K (Aldehyde oxidase 1 [1]): 3.6 to 6.1
K (Aldehyde oxidase [2]): 3.6 to 6.1
K (Aldehyde oxidase 1 [3]): 3.6 to 6.1

SMILES: CCCN1CC(c2ccc(S(C)(=O)=O)cc2)=C(c2ccc(C=O)cc2)C1=O
Activity (Aldehyde oxidase [8]): 77%

SMILES: N#CCNC(=O)c1ccc(-c2ccnc(Nc3ccc(N4CCOCC4=O)cc3)n2)cc1
Drug uptake (Aldehyde oxidase 1 [9]): < 10%
Drug uptake [10]: < 10%
Drug uptake (Aldehyde oxidase [11]): 64.2%

SMILES: Oc1ncc(F)cn1
bioavailability [12]: 78%
bioavailability [13]: 100%

SMILES: CCCN1CC(c2ccc(S(C)(=O)=O)cc2)=C(c2ccc(C(=O)O)cc2)C1=O
Drug uptake [17]: 68%

SMILES: COCCc1c(C(=O)NC(=N)N)cnn1-c1cccc2ncccc12
t1/2 (Aldehyde oxidase [18]): 2 h

SMILES: N=C(N)NC(=O)c1cnn(-c2ccc3ncccc3c2)c1C1CC1
t1/2 (Aldehyde oxidase [18]): < 0.083 h

More lines, now with the values ahead:

K (Aldehyde oxidase 1 [5]): 4.7 to 5.1
K (Aldehyde oxidase [6]): 4.7 to 5.1
K (Aldehyde oxidase 1 [7]): 4.7 to 5.1
SMILES: c1ccc2nccnc2c1 [QUINOXALINE]

K (Aldehyde oxidase 1 [5]): 4.7 to 5.1
K (Aldehyde oxidase [6]): 4.7 to 5.1
K (Aldehyde oxidase 1 [7]): 4.7 to 5.1
SMILES: c1ccc2cnncc2c1 [PHTHALAZINE]

fold change (FC) (Cytochrome P450 3A4 [14]): 2.7
fold change (FC) (Cytochrome P450 3A4 [15]): 12
fold change (FC) (Cytochrome P450 3A4 [16]): 4.3
SMILES: CC[C@@](C)(Nc1ccnc(-c2c[nH]c3ncccc23)n1)C(=O)NCC(F)(F)F [DECERNOTINIB]

K (Aldehyde oxidase 1 [1]): 3.6 to 6.1
K (Aldehyde oxidase [2]): 3.6 to 6.1
K (Aldehyde oxidase 1 [3]): 3.6 to 6.1
K (Aldehyde oxidase [4]): 1.9
SMILES: N=C(N)NC(=O)c1cnn(-c2cccc3ncccc23)c1C1CC1 [ZONIPORIDE]

clearance [19]: 12 mL/min/kg
SMILES: Cn1cc(-c2ccc3nnc(C(F)(F)c4ccc5ncccc5c4)n3n2)cn1 [JNJ-38877605]

bioavailability [20]: 77%
SMILES: Nc1nc2c(ncn2CCC(CO)CO)c(=O)[nH]1 [PENCICLOVIR]
